Like-named read-outs stand apart in the source and are kept apart here.
Experiments:
[1] = test system: HCT-116 (human colon cancer); assay: MTT cytotoxicity assay; type: cell-based
Text: (§3) The antiproliferative activity of the newly synthesized 1H-benzo[f]chromenes derivatives (4a-q) was examined in three human cancer cell lines: MCF-7 (breast cancer), HCT-116 (human colon cancer), and HepG-2 (hepatocellular carcinoma), as well as the two normal cell lines, HFL-1 (human foetal lung) and WI-38 (human diploid fibroblasts), using the 3-(4,5-dimethylthiazol-2-yl)-2,5-diphenyl tetrazolium bromide (MTT) colorimetric assay[56].
(§4) Compounds 4a-q was initially evaluated for in vitro antitumor activity against three different human cell lines: MCF-7, HCT-116 and HepG-2. In-vitro cytotoxicity evaluation was performed at the Regional Center for Mycology & Biotechnology (RCMP), Al-Azhar University under different concentrations (50, 25, 12.5, 6.25, 3.125, 1.56 and 0 µg/mL); vinblastine and doxorubicin are used as reference cytotoxic compounds.

[2] = test system: Staphylococcus aureus (ATCC 6538); assay: Agar diffusion antibacterial screening (inhibition zone); type: cell-based; conditions: ATCC6538, S. aureus, 1 mg/mL, Mueller–Hinton agar, read-out: Diameter of inhibition zone
Experimental: (§1) The antibacterial activity of β-enamionitriles (4a-q) was screened using Mueller–Hinton agar medium for bacteria in an agar diffusion methodology. Ciprofloxacin (1 mg/mL) was the reference antibiotic drug used in the analysis of collections that included four gram-positive species of multi drug resistant pathogenic bacteria: Staphylococcus aureus (MRSA) (ATCC 6539), Staphylococcus aureus (ATCC 6538), Bacillus cereus (ATCC 10987), Bacillus subtilis (ATCC 6633), and two gram-negative species of multi drug resistant pathogenic bacteria Klebsiella pneumonia (ATCC 13883) and Escherichia coli (ATCC 8739). […] Using a 1 mg/mL concentration of compounds (4a-q), the minimum zone of inhibition (IZ, the area around the antimicrobial agent where bacterial growth is prevented) was established in mm ± standard deviation beyond the well diameter (6 mm). […] The synthetic compound's inhibitory effects on evaluation against these organisms are depicted in Fig. 9 and Table 1.
(§2) Compound 4a-q was screened for its in vitro antimicrobial activities against pathogenic bacteria species using the standard antibiotics Ampicillin, Gentamycin and Ketoconazole as reference drugs as reported previously. The minimum inhibitory concentration (MIC) was determined as previously reported. The antimicrobial activities were performed at the Regional Centre for Mycology & Biotechnology (RCMP), Al-Azhar University.

[3] = test system: Klebsiella pneumonia (ATCC 13883); assay: as above; type: cell-based; conditions: Klebsiella pneumoniae, ATCC13883, K. pneumonia, 1 mg/mL, Mueller–Hinton agar, read-out: Diameter of inhibition zone
Experimental: as §1, §2

[4] = test system: Escherichia coli (ATCC 8739); assay: as above; type: cell-based; conditions: ATCC8739, E. coli, 1 mg/mL, Mueller–Hinton agar, read-out: Diameter of inhibition zone
Experimental: as §1, §2

[5] = test system: Staphylococcus aureus (MRSA) (ATCC 6539); assay: as above; type: cell-based; conditions: read-out: Diameter of inhibition zone
Experimental: as §1, §2

[6] = test system: Bacillus cereus (ATCC 10987); assay: as above; type: cell-based; conditions: ATCC10987, B. cereus, 1 mg/mL, Mueller–Hinton agar, read-out: Diameter of inhibition zone
Experimental: as §1, §2

[7] = test system: Bacillus subtilis (ATCC 6633); assay: as above; type: cell-based; conditions: ATCC6633, B. subtilis, 1 mg/mL, Mueller–Hinton agar, read-out: Diameter of inhibition zone
Experimental: as §1, §2

[8] = test system: HepG-2 (hepatocellular carcinoma); assay: MTT cytotoxicity assay; type: cell-based; conditions: Homo sapiens
Text: as §3, §4

[9] = test system: MCF-7 (breast cancer); assay: MTT cytotoxicity assay; conditions: Homo sapiens
Text: as §3, §4

[10] = test system: HFL-1 (human foetal lung); assay: MTT cytotoxicity assay, normal cells; type: cell-based; conditions: read-out: IC50 Normotoxicity HFL-1
Text: as §3, §4

[11] = test system: WI-38 (human diploid fibroblasts); assay: MTT cytotoxicity assay, normal cells; type: cell-based; conditions: read-out: IC50 Normotoxicity WI-38
Text: as §3, §4

[12] = MTT, 24-h incubation, mean ± standard error, read-out: IC50 Cancerotoxicity HCT-116
[13] = HepG2, MTT, 24-h incubation, mean ± standard error, read-out: IC50 Cancerotoxicity HepG-2
[14] = MCF7, 24 h, read-out: IC50 Cancerotoxicity MCF-7
[15] = given in µg/mL, read-out: IC50 HCT-116
[16] = HFL1, HFL-1 normal cells, MTT, 24-h incubation, mean ± standard error
[17] = WI-38 normal cells, MTT, 24-h incubation, mean ± standard error
[18] = HepG2, given in µg/mL, read-out: IC50 HepG-2

Row | Structure (SMILES) | IC50 [1, 12] [µM] | zone of inhibition at 1000 µg/mL [2] [mm] | zone of inhibition at 1000 µg/mL [3] [mm] | zone of inhibition at 1000 µg/mL [4] [mm] | zone of inhibition at 1000 µg/mL [5] [mm] | zone of inhibition at 1000 µg/mL [6] [mm] | zone of inhibition at 1000 µg/mL [7] [mm] | IC50 [8, 13] [µM] | melting point [°C] | IC50 [9, 14] [µM] | IC50 ([10]; HFL1, 24 h) [µM] | IC50 ([11]; WI-38, 24 h) [µM] | IC50 [1, 15] [µg/mL] | IC50 [10, 16] [µM] | IC50 [11, 17] [µM] | IC50 [8, 18] [µg/mL] | IC50 ([9]; MCF7, read-out: IC50 MCF-7) [µg/mL]
1 | COc1ccc2c3c(ccc2c1)OC(N)=C(C#N)C3c1c(F)cccc1F (stereo not shown) [Compound 4h, 3-Amino-1-(2,6-difluorophenyl)-8-methoxy-1H-benzo[f]chromene-2-carbonitrile] | 33.8 ± 0.12 | 9 | 10 | 0 | 13 | 9 | 0 | 48.1 ± 0.2 | 295 to 296 | 60.2 ± 0.3 |  |  |  |  |  |  | 
2 | C#Cc1cccc(Nc2ncnc3cc(OCCOC)c(OCCOC)cc23)c1 [Erlotinib, N-(3-ethynylphenyl)-6,7-bis(2-methoxyethoxy)-4-quinazolinamine, reference compound] |  |  |  |  |  |  |  |  |  |  | 14 ± 1.2 | 28.5 ± 0.2 |  |  |  |  | 
3 | COc1ccc2c3c(ccc2c1)OC(N)=C(C#N)C3c1ccc(I)cc1 (stereo not shown) [Compound 4f, 3-Amino-1-(4-iodophenyl)-8-methoxy-1H-benzo[f]chromene-2-carbonitrile] | 27.8 ± 0.3 | 0 | 9 | 0 | 12 | 15 | 8 | 39.2 ± 0.2 | 227 to 228 | 48.5 ± 0.1 |  |  |  |  |  |  | 
4 | COc1ccc2c3c(ccc2c1)OC(N)=C(C#N)C3c1cc(OC)c(OC)c(OC)c1 (stereo not shown) [Compound 4p, 3-amino-1-(3,4,5-trimethoxyphenyl)-8-methoxy-1H-benzo[f]chromene-2-carbonitrile] | 91.4 ± 0.01 | 11 | 12 | 11 | 13 | 15 | 0 | 106.5 ± 0.1 | 258 to 259 | 114.4 ± 0.03 |  |  |  |  |  |  | 
5 | COc1ccc2c3c(ccc2c1)OC(N)=C(C#N)C3c1cccc(Cl)c1Cl (stereo not shown) [Compound 4i, 3-Amino-1-(2,3-dichlorophenyl)-8-methoxy-1H-benzo[f]chromene-2-carbonitrile] | 3.5 ± 0.15 | 0 | 14 | 0 | 13 | 8 | 0 | 2.8 ± 0.17 | 256 to 257 | 2.3 ± 0.01 |  |  | 1.4 ± 0.15 | 154.5 ± 0.1 | 160.1 ± 0.2 | 11.1 ± 0.17 | 0.9 ± 0.01
6 | COc1ccc2c3c(ccc2c1)OC(N)=C(C#N)C3c1ccc(Cl)cc1Cl (stereo not shown) [Compound 4j, 3-Amino-1-(2,4-dichlorophenyl)-8-methoxy-1H-benzo[f]chromene-2-carbonitrile] | 5.8 ± 0.16 | 0 | 14 | 12 | 13 | 8 | 0 | 14.1 ± 0.18 | 285 to 286 | 2 ± 0.02 |  |  |  | 180.8 ± 0.3 | 177.8 ± 0.3 |  | 
7 | COc1ccc2c3c(ccc2c1)OC(N)=C(C#N)C3c1cc(Cl)cc(Cl)c1Cl (stereo not shown) [Compound 4q, 3-amino-1-(2,3,5-trichlorophenyl)-8-methoxy-1H-benzo[f]chromene-2-carbonitrile] | 107 ± 1.6 | 10 | 13 | 12 | 13 | 13 | 10 | 76.5 ± 0.9 | 259 to 260 | 110.4 ± 0.1 |  |  |  |  |  |  | 
8 | COc1ccc2c3c(ccc2c1)OC(N)=C(C#N)C3c1ccc(OC)c(OC)c1OC (stereo not shown) [Compound 4o, 3-amino-1-(2,3,4-trimethoxyphenyl)-8-methoxy-1H-benzo[f]chromene-2-carbonitrile] | 35.9 ± 0.02 | 10 | 11 | 12 | 12 | 14 | 0 | 17.6 ± 0.05 | 240 to 241 | 55.3 ± 0.01 |  |  |  |  |  |  | 
9 | N#CC(C#N)=Cc1ccc(Cl)cc1 |  |  |  |  |  |  |  |  | 162 to 163 |  |  |  |  |  |  |  | 
10 | COc1ccc2c3c(ccc2c1)OC(N)=C(C#N)C3c1cc(Br)cc(Br)c1OC (stereo not shown) [Compound 4n, 3-amino-1-(3,5-dibromo-2-methoxyphenyl)-8-methoxy-1H-benzo[f]chromene-2-carbonitrile] | 1.2 ± 0.06 | 0 | 11 | 0 | 14 | 13 | 0 | 5.6 ± 0.21 | 241 to 242 | 1.4 ± 0.05 |  |  | 0.6 ± 0.06 | 139.5 ± 0.1 | 135.4 ± 0.3 | 2.9 ± 0.21 | 0.7 ± 0.05
11 | O=C(O)c1cn(C2CC2)c2cc(N3CCNCC3)c(F)cc2c1=O [Ciprofloxacin, reference compound] |  | 0 | 0 | 25 | 0 | 22 | 0 |  |  |  |  |  |  |  |  |  | 
12 | COc1ccc2c3c(ccc2c1)OC(N)=C(C#N)C3c1ccc(Cl)c(Cl)c1 (stereo not shown) [Compound 4m, 3-Amino-1-(3,4-dichlorophenyl)-8-methoxy-1H-benzo[f]chromene-2-carbonitrile] | 2.3 ± 0.97 | 0 | 13 | 10 | 14 | 13 | 0 | 1.8 ± 0.06 | 241 to 242 | 1.3 ± 0.21 |  |  | 0.9 ± 0.97 | 181 ± 0.1 | 175.5 ± 0.2 | 0.7 ± 0.06 | 0.5 ± 0.21
13 | COc1ccc2c3c(ccc2c1)OC(N)=C(C#N)C3c1cccc(Cl)c1 (stereo not shown) [Compound 4c, 3-Amino-1-(3-chlorophenyl)-8-methoxy-1H-benzo[f]chromene-2-carbonitrile] | 5.5 ± 0.35 | 0 | 13 | 12 | 15 | 17 | 0 | 3.3 ± 0.5 | 216 to 217 | 3.6 ± 0.14 |  |  |  | 187.6 ± 0.2 | 214.1 ± 0.1 |  | 
14 | COc1ccc2c3c(ccc2c1)OC(N)=C(C#N)C3c1c(Cl)cccc1Cl (stereo not shown) [Compound 4l] | 21.3 ± 0.01 | 0 | 14 | 0 | 13 | 8 | 0 | 2.3 ± 0.02 | 313 to 314 | 12.1 ± 0.06 |  |  |  |  |  |  | 
15 | COc1ccc2c3c(ccc2c1)OC(N)=C(C#N)C3c1cc(Cl)ccc1Cl (stereo not shown) [Compound 4k, 3-Amino-1-(2,5-dichlorophenyl)-8-methoxy-1H-benzo[f]chromene-2-carbonitrile] | 2.5 ± 0.23 | 0 | 15 | 13 | 12 | 0 | 0 | 1.8 ± 0.03 | 270 to 271 | 6.6 ± 0.4 |  |  |  |  |  |  | 

Reference: publication PMC11058275, “Targeted potent antimicrobial and antitumor oxygen-heterocyclic-based pyran analogues: synthesis and computational studies” (Scientific Reports, 2024)
